Assay results as given in USRE38984E1, “Antifungal combination therapy” (Merck & Co., Inc., priority 1996, dated 2006).

Key:
[1] = drug interaction and efficacy studies against disseminated candidiasis, aspergillosis and cryptococcosis (overall findings); type: in vivo
Description: (§1) Drug interaction and efficacy studies with Compound I combined with either AmB or FCZ against disseminated candidiasis, aspergillosis and cryptococcosis were performed.

C. albicans [2] = test: drug interaction and efficacy study against disseminated candidiasis; type: in vivo; conditions: Compound I 0.03 mg/kg and lower plus AmB 0.03 mg/kg and lower
Description: as §1

A. fumigatus [3] = test: drug interaction and efficacy study against disseminated aspergillosis; type: in vivo; conditions: Compound I 0.008 mg/kg combined with AmB 0.12 mg/kg, over the compounds administered alone
Description: as §1

C. neoformans [4] = test: drug interaction and efficacy study against cryptococcosis in mice; type: in vivo
Description: as §1

A. fumigatus [5] = test: broth microdilution antifungal susceptibility / drug combination testing in vitro (NCCLS M27-T); type: cell-based
Source text: (§2) This has been shown using a broth microdilution technique which is the standard method for antifungal susceptibility testing proposed by the NCCLS (protocol M27-T). Sub-inhibitory concentrations of Compound I in combination with sub-inhibitory concentrations of AmB and sub-inhibitory concentrations of FCZ were employed. The minimal inhibitory concentrations (MICS) for AmB and Compound I were defined as the lowest drug concentration at which there was an absence of growth.
(§3) Additional drug combination testing in vitro was performed to evaluate combinations of Compound I with AmB and FCZ against clinical isolates. There was no antagonism evident between Compound I and AmB against C. albicans, A. fumigatus and C. neoformans. Fractional inhibitory indices (FIC) were approximately 0.50 or lower, indicative of additive or synergistic activity.

C. neoformans [6] = test: as above; type: cell-based
Source text: as §2, §3

C. albicans [7] = test: as above; type: cell-based
Source text: as §2, §3

[8] = Compound I with AmB, sub-inhibitory concentrations
[9] = in vitro drug combination, clinical isolates, indicative of additive or synergistic activity

With CCC(C)CC(C)CCCCCCCCC(=O)N[C@H]1C[C@@H](O)[C@@H](NCCN)NC(=O)[C@@H]2[C@@H](O)CCN2C(=O)[C@H]([C@H](O)CCN)NC(=O)[C@H]([C@H](O)[C@@H](O)c2ccc(O)cc2)NC(=O)[C@@H]2C[C@@H](O)CN2C(=O)[C@H]([C@@H](C)O)NC1=O (stereo partly drawn) [Compound I] the “FIC values in vivo” value ([1]; Compound I and AmB, suggesting additive or synergistic activity in vivo) was “approximately 0.50”, the “adverse effects with combinations” value ([1]; Compound I combined with either AmB or FCZ, at high, use or lower concentrations) was “no adverse effects” and the antagonism of efficacy ([1]; either AmB or FCZ combined with Compound I) was “no antagonism of efficacy”. For the same compound, the “efficacy of combination versus single agents” value (C. albicans [2]) was “more efficacious than either agent administered alone”, the survival (A. fumigatus [3]) was “Significant improvement in survival” and the antagonism of efficacy (C. neoformans [4]; FCZ in combination with Compound I, cryptococcosis in mice) was “no antagonism of efficacy”. The effects on efficacy (C. neoformans [4]; combinations of Compound I and FCZ at certain concentrations) was “Beneficial effects on efficacy”, the “activity of combination therapy in vitro” value (A. fumigatus [5]; [8]) was “enhanced activity” and the “Fractional inhibitory indices (FIC)” value (A. fumigatus [5]; [9]) was ≤ 0.50. For the same compound, the “antagonism between Compound I and AmB” value (A. fumigatus [5]; in vitro, clinical isolates) was “no antagonism”, the “effect on activity of fluconazole (CFU numbers)” value (C. neoformans [6]; Compound I combined with fluconazole 0.25, 0.50 and 1.0 μg/ml) was “significantly enhanced the activity of fluconazole” and the “activity of combination therapy in vitro” value (C. neoformans [6]; Compound I with AmB and FCZ, sub-inhibitory concentrations, strains of C. neoformans) was “enhanced activity”. The “colony forming units (CFUs)” value (C. neoformans [6]; amphotericin B 0.0075, 0.015 and 0.03 μg/ml combined with Compound I 4, 8 and 16 μg/ml) was “markedly reduced”, the “Fractional inhibitory indices (FIC)” value (C. neoformans [6]; [9]) was ≤ 0.50 and the “antagonism between Compound I and AmB” value (C. neoformans [6]; in vitro, clinical isolates) was “no antagonism”. For the same compound, the “activity of combination therapy in vitro” value (C. albicans [7]; [8]) was “enhanced activity”, the “Fractional inhibitory indices (FIC)” value (C. albicans [7]; [9]) was ≤ 0.50 and the “antagonism between Compound I and AmB” value (C. albicans [7]; in vitro, clinical isolates) was “no antagonism”.
